{"source": "paper PMC10064330", "about": "“Reversible Dual-Covalent Molecular Locking of the 14-3-3/ERRγ Protein–Protein Interaction as a Molecular Glue Drug Discovery Approach” (Journal of the American Chemical Society, 2023)", "key": {"[1]": {"biological_target": "T1, 14-3-3γ (Homo sapiens, UniProt P61981)", "T1 construct": "made in house; host or cells: E. coli NiCo21 (DE3)", "T1 sequence (P61981 1-247)": "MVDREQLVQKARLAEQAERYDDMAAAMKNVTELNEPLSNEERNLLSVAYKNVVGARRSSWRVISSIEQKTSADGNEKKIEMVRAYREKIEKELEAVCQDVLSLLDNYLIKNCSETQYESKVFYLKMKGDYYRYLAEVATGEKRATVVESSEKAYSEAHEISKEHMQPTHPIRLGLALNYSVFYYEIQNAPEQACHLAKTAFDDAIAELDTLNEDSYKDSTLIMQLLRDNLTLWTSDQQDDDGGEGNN", "experiment": "FA binding of client phosphopeptides to 14-3-3γ (binary complex)", "settings": "no stabilizer (DMSO); read-out: KD of binary 14-3-3γ/peptide complex"}, "[2]": {"biological_target": "T2, 14-3-3γ/ERRγ complex (Homo sapiens, UniProt P61981+P62508)", "T2 construct": "made in house; host or cells: E. coli NiCo21 (DE3)", "experiment": "Fluorescence anisotropy (FA): 14-3-3γ titration to fluorescein-ERRγ phosphopeptide with 100 μM compound", "assay_type": "binding", "settings": "for stabilization factor SF100, Replicate 1 (Table S2) / stabilization factor SF100, Replicate 2 (Table S2) / stabilization factor SF100, Replicate 3 (Table S2) / stabilization factor SF100, Average (Table S2): KD DMSO control / apparent KD with 100 μM compound, 24 h; for stabilization factor SF100, Average (Table S2): average of three experiments", "protocol": "The stabilization of the ERRγ/14-3-3γ complex by the molecular locks was assessed using a fluorescence anisotropy (FA) assay where 14-3-3γ was titrated into a fluorescently labeled ERRγ phosphopeptide in the absence or presence of a 100 μM molecular lock (Figure 2a,b); this compound concentration was selected based on a FA compound titration assay (Figure S1).\nExperimental Section Biophysical Assays\n14-3-3γ protein expression (FA, TSA, MS assays)\nA pPROEX HTb expression vector encoding the human 14-3-3 protein gamma (14-3-3γ) with a N-terminal his6-tag was transformed by heat shock into NiCo21 (DE3) competent cells. Single colonies were cultured in 50 mL LB medium (100 µg/mL ampicillin). After overnight incubation at 37 °C, cultures were transferred to 2 L TB media (100 µg/mL ampicillin, 1 mM MgCl2) and incubated at 37 °C until an OD600 nm of 0.8 -1.2 was reached. Protein expression was then induced with 0.4 mM isopropyl-β-d-thiogalactoside (IPTG), and cultures were incubated overnight at 18 °C. Cells were harvested by centrifugation (8600 rpm, 20 minu tes, 4 °C) and resuspended in lysis buffer (50 mM Hepes, pH 8.0, 300 mM NaCl, 12.5 mM imidazole, 5 mM MgCl2, 2 mM βME) containing cOmplete™ EDTA-free Protease Inhibitor Cocktail tablets (1 tablet/100 ml lysate) and benzonase ( 5 µl/100 ml). After lysis using a C3 Emulsiflex-C3 homogenizer (Avestin), the cell lysate was cleared by centrifugation (20000 rpm, 30 minutes, 4 °C) and purified using Ni2+-affinity chromatography (Ni -NTA superflow cartridges, Qiagen). Typically two 5 mL columns (flow 5 mL/min) were use d for a 2 L culture in which the lysate was loaded on the column , washed with 10 CV wash buffer (50 mM Hepes, pH 8.0, 300 mM NaCl, 25 mM imidazole, 2 mM βME), and eluted in several fractions (2-4 CV) of elution buffer (50 mM Hepes, pH 8.0, 300 mM NaCl, 250 mM imidazole, 2 mM βME). Fractions containing the 14 -3-3 protein were combined and dialyzed into 25 mM HEPES pH 8.0, 100 mM NaCl, 10 mM MgCl2, 500 µM TCEP. Finally, the protein was concentrated to ∼60 mg/mL, analyzed Q-Tof LC/MS, and aliquots were flash-frozen for storage at −80 °C.\n14-3-3σΔc C38N protein expression (Crystallography)\nA pPROEX HTb expression vector encoding the human 14-3-3 protein sigma truncated after T231 (14-3-3σΔc), mutated C38N, and containing a N-terminal his6-tag was transformed by heat shock into NiCo21 (DE3) competent cells. Single colonies were cultured in 50 mL LB medium (100 µg/mL ampicillin). After overnight incubation at 37 °C, cultures were transferred to 2 L TB media (100 µg/mL ampicillin, 1 mM MgCl2) and incubated at 37 °C until an OD600 nm of 0.8-1.2 was reached. Protein expression was then induced with 0.4 mM isopropyl-β-d-thiogalactoside (IPTG), and cultures were incubated overnight at 18 °C. Cells were harvested by centrifugation (8600 rpm, 20 minutes, 4 °C) and resuspended in lysis buffer (50 mM Hepes, pH 8.0, 300 mM NaCl, 12.5 mM imidazole, 5 mM MgCl2, 2 mM βME) containing cOmplete™ EDTA-free Protease Inhibitor Cocktail tablets (1 tablet/ 100 ml lysate) and benzonase (5 µl/ 100 ml). After lysis using a C3 Emulsiflex-C3 homogenizer (Avestin), […]\nchromatography (Ni-NTA superflow cartridges, Qiagen). Typically two 5 mL columns were used for a 2 L culture in which the lysate was loaded on the column , washed with 10 CV wash buffer (50 mM Hepes, pH 8.0, 300 mM NaCl, 25 mM imidazole, 2 mM βME), and eluted with several fractions (2 -4 CV) of elution buffer (50 mM Hepes, pH 8.0, 300 mM NaCl, 250 mM imidazole, 2 mM βME). Fractions containing the 14-3-3 protein were combined and dialyzed into 25 mM HEPES pH 8.0, 200 mM NaCl, 10 mM MgCl 2, 2 mM βME. In addition, 1 mg TEV was added for each 100 mg purified protein to remove the purification tag. The cleaved sample was then again loaded on a 10 mL Ni-NTA column to separate the cleaved product from the expression tag and residual uncleaved protein. The flowthrough was loaded on a Superdex 75 pg 16/60 size exc lusion column (GE Life Sciences) using […]"}}, "note": "Square brackets hold non-standard residues; d marks the D form. Peptide text beside a SMILES is read from it. pS = N[C@@H](COP(=O)(O)O)C(=O)O"}
{"smiles": "CC(=O)N[C@@H](CCCCN)C(=O)N[C@@H](CCCNC(=N)N)C(=O)N[C@@H](CCCNC(=N)N)C(=O)N[C@@H](CCCNC(=N)N)C(=O)N[C@@H](CCCCN)C(=O)N[C@@H](COP(=O)(O)O)C(=O)N[C@@H](CS)C(=O)N[C@@H](CCC(N)=O)C(=O)N[C@@H](C)C(N)=O", "note": "[ERRγ] (Ac-KRRRK[pS]CQA-NH2; N-terminus and C-terminus assumed)", "values": [{"measurement": "Kd", "setting": "[1]", "result": "6.5 ± 0.9", "unit": "µM"}]}
{"smiles": "CN(C)CCSSCCN(C)C(=O)c1ccc(C=O)cc1", "note": "[compound 4]", "values": [{"measurement": "stabilization factor SF100, Replicate 1 (Table S2)", "setting": "[2]", "result": 13.0}, {"measurement": "stabilization factor SF100, Replicate 2 (Table S2)", "setting": "[2]", "result": 8.6}, {"measurement": "stabilization factor SF100, Replicate 3 (Table S2)", "setting": "[2]", "result": 9.0}, {"measurement": "stabilization factor SF100, Average (Table S2)", "setting": "[2]", "result": 10.2}]}
{"smiles": "CN(C)CCSSCCN(C)C(=O)c1ccc(C=O)c(Br)c1", "note": "[compound 6]", "values": [{"measurement": "stabilization factor SF100, Replicate 1 (Table S2)", "setting": "[2]", "result": 22.3}, {"measurement": "stabilization factor SF100, Replicate 2 (Table S2)", "setting": "[2]", "result": 14.3}, {"measurement": "stabilization factor SF100, Replicate 3 (Table S2)", "setting": "[2]", "result": 16.9}, {"measurement": "stabilization factor SF100, Average (Table S2)", "setting": "[2]", "result": 17.8}]}
{"smiles": "CN(C)CCSSCCN(C)S(=O)(=O)c1ccc(C=O)cc1", "note": "[compound 7]", "values": [{"measurement": "stabilization factor SF100, Replicate 1 (Table S2)", "setting": "[2]", "result": 13.4}, {"measurement": "stabilization factor SF100, Replicate 2 (Table S2)", "setting": "[2]", "result": 11.4}, {"measurement": "stabilization factor SF100, Replicate 3 (Table S2)", "setting": "[2]", "result": 8.6}, {"measurement": "stabilization factor SF100, Average (Table S2)", "setting": "[2]", "result": 11.2}]}
{"smiles": "CN(C)CCSSCCN(C)C(=O)c1cccc(C=O)c1", "note": "[compound 8]", "values": [{"measurement": "stabilization factor SF100, Replicate 1 (Table S2)", "setting": "[2]", "result": 25.5}, {"measurement": "stabilization factor SF100, Replicate 2 (Table S2)", "setting": "[2]", "result": 17.3}, {"measurement": "stabilization factor SF100, Replicate 3 (Table S2)", "setting": "[2]", "result": 19.0}, {"measurement": "stabilization factor SF100, Average (Table S2)", "setting": "[2]", "result": 20.6}]}
{"smiles": "CN(C)CCSSCCN(C)C(=O)c1ccc(F)c(C=O)c1", "note": "[compound 9]", "values": [{"measurement": "stabilization of 14-3-3γ/ERRγ complex (SF100, fold)", "setting": "[2]; 100 μM compound, 24 h incubation", "result": "least active"}, {"measurement": "stabilization factor SF100, Replicate 1 (Table S2)", "setting": "[2]", "result": 8.5}, {"measurement": "stabilization factor SF100, Replicate 2 (Table S2)", "setting": "[2]", "result": 5.4}, {"measurement": "stabilization factor SF100, Replicate 3 (Table S2)", "setting": "[2]", "result": 7.9}, {"measurement": "stabilization factor SF100, Average (Table S2)", "setting": "[2]", "result": 7.3}]}
